“Also recorded” adds a separate entry of the source.
Tests used:
[1] = system: hepatic CRL (cullin) neddylation and hepatic insulin signaling; test: Western blot of liver lysates after acute MLN4924 injection; format: in vivo; conditions: chow-fed mice, 6 h fast; for hepatic CRL (cullin) neddylation: 60 mg/kg at 5 pm day 1 and 9 am day 2 (IP or SQ)
Protocol: A. Western blot of liver lysates. Chow-fed male C56BL/6J mice were injected with 60 mg/kg MLN4924 or Vehicle (10% 2HO-β-cyclodextrin) at 5 pm on day 1 and 9 am on day 2, and sacrificed at 3 pm after 6 h fast. Upper arrow: Neddylated Cul3; Lower arrow: de-neddylated Cul3. Veh=vehicle; IP=intraperitoneal; SQ=subcutaneous.
FIG. 12A is a Western blot showing that MLN4924 inhibits liver cullin neddylation and increases IRS protein abundance and insulin signaling activation. Chow-fed male C56BL/6J mice were subcutaneously (SQ) injected 60 mg/kg MLN4924 or Veh (10 % 2HO-β-cyclodextrin) at 5 pm on day 1 and 9 am on day 2. Mice were fasted from 9 am to 3 pm on day 2 and sacrificed. Upper and lower arrows indicate neddylated cullin1 and cullin3 bands, respectively.
MLN4924 and TAS4464 were purchased from MedChemExpress (MCE, Monmouth Junction, NJ). For cell treatment, MLN4924 and TAS4464 were dissolved in DMSO. Cells were serum starved overnight and then treated with MLN4924, TAS4464 and/or insulin as indicated. For injection in mice, MLN4924 and TAS4464 were first dissolved in DMSO, which was further suspended in 10% (2-hydroxypropyl)-β-cyclodextrin (Sigma, St. Louis, MO). The final solution contains 1% DMSO. The subcutaneous injection volume is 200 µl/mouse.
Protein lysates were prepared in RIPA buffer containing 1% SDS and protease inhibitors on ice for 1 h followed by brief sonication. After centrifugation, supernatant was used for SDS-PAGE and immunoblotting.
WT male C57BL/6J mice were purchased from the Jackson Lab (Bar Harbor, ME). Western diet (TD. 88137, Envigo Inc. Indianapolis, IN) contains 42% fat calories and 0.2% cholesterol. Mice were housed in micro-isolator cages with corn cob bedding under 7 am - 7 pm light cycle and 7 pm -7 am dark cycle. MLN4924 was prepared in 10% 2-hydroxypropyl-b-cyclodextrin to a final concentration of 3 mg/ml. All mice were fasted for 6 h from 9 am to 3 pm before euthanasia. All animals received humane care according to the criteria outlined in the “Guide for the Care and Use of Laboratory Animals.” All animal protocols were approved by the Institutional Animal Care and Use Committee at the University of Kansas Medical Center and the University of Oklahoma Health Sciences Center.
Human normal livers (less than 5% steatosis) and histologically confirmed NASH livers were obtained from either the University of Kansas Liver Center or the Liver Tissue Cell Distribution System (LTCDS) at the University of Minnesota. Human and mouse tissue samples were homogenized in 1XRIPA buffer containing 1% SDS and protease inhibitors. After incubation on ice for 1 hour, the samples were centrifugation and supernatant was transferred to a new tube. The protein lysate was mixed with equal volume of 2X laemmli buffer and incubated at 95° C. for 5 minutes and used for SDS-PAGE and immunoblotting. ImageJ software (NIH) was used to determine band intensity.
To further explore the hepatic insulin sensitizing effect of neddylation inhibition in vivo, we administered MLN4924 to chow-fed mice twice via subcutaneous (SQ) injection (5 pm on day 1 and 9 am on day 2) and studied the acute effect of MLN4924. The dose of 60 mg/kg is in line with published literature. […] In addition to liver, skeletal muscle is another organ that quantitatively contribute to plasma glucose homeostasis.

[2] = system: male mice fed WD for 6 weeks; test: Insulin tolerance test (ITT); format: in vivo; conditions: WD 6 weeks, 60 mg/kg SQ twice
Protocol: Male C7BL/6J mice were first fed WD for 6 weeks, and then treated with 60 mg/kg MLN6924 via subcutaneous (SQ) injection at 5 pm on day 1 and 9 am on day 2. Mice were fasted from 9 am to 3 pm on day 2 and insulin tolerance test was performed with 0.5 U/kg insulin i.p. injection (n=5). All results are expressed as mean ± SEM. “*”, p<0.05, vs. Vehicle group at the same time point. Unpaired Student’s t-test was used to calculate the p value.
Mice were treated with 2 doses of MLN4924 as described. After the second injection at 9 am, mice were fasted for 6 h from 9 am to 3 pm. Mice were injected intraperitoneally […] for PTT, and 0.5 U/kg insulin for ITT. Blood glucose was measured with a OneTouch Ultra glucose meter.

high fat diet-fed mice = conditions: i.p. injection; cited from earlier work

With `NS(=O)(=O)OC[C@@H]1C[C@@H](n2ccc3c(N[C@H]4CCc5ccccc54)ncnc32)C[C@@H]1O` [MLN4924, ((1S,2S,4R)-4-(4-((1S)-2,3-dihydro-1H-inden-1-ylamino)-7H-pyrrolo[2,3-d]pyrimidin-7-yl)-2-hydroxycyclopentyl) methyl sulfamate] the “hepatic CRL (cullin) neddylation” value ([1]; 60 mg/kg) was “effectively reduced hepatic CRL neddylation”, the “hepatic CRL (cullin) neddylation” value ([1]; listed as MLN4924, 60 mg/kg) was “effectively reduced hepatic cullin neddylation” and the “hepatic Y612 phosphorylated IRS1” value ([1]; 60 mg/kg twice) was “increased Y612 phosphorylated IRS1”. The “hepatic IRS1 and IRS2 protein” value ([1]; 60 mg/kg twice, 60 mg/kg) was “rapidly increased hepatic IRS1 and IRS2; also recorded: increased hepatic IRS proteins”, the “hepatic phosphorylated AKT” value ([1]; 60 mg/kg twice, 60 mg/kg) was “higher phosphorylated AKT; also recorded: increased hepatic IRS proteins and AKT phosphorylation” and the “plasma glucose in response to insulin after 1 h” value ([2]; 0.5 U/kg insulin i.p., similar in vehicle group) was ~ 25 mg/dL. For the same compound, the basal glucose ([2]; 6 h fast) was “lower basal glucose” and the obesity (high fat diet-fed mice) was “significantly reduces obesity”.

— patent US20230218654A1, “COMPOSITIONS AND METHODS FOR TREATING HYPERGLYCEMIA IN TYPE-2 DIABETES” (The Board of Regents of the university of Oklahoma, priority 2020, published 2023)
